Test results reported in US8981094B2, “Piperidine/piperazine derivatives” (Janssen Pharmaceutica N.V., priority 2007, dated 2015).

Legend:
human DGAT1 = molecular target: T1, human DGAT1 (Homo sapiens, UniProt O75907); assay: Inhibition of DGAT1 activity, FlashPlate assay with DGAT1 membrane preparations and substrate micelles; assay type: biochemical; settings: pIC50 = -logIC50, IC50 values expressed in M
T1 construct: FLAG (N); made in house; host or cells: SF9 insect cells (pFastBac baculovirus); total cell membranes
T1 sequence (O75907 1-488): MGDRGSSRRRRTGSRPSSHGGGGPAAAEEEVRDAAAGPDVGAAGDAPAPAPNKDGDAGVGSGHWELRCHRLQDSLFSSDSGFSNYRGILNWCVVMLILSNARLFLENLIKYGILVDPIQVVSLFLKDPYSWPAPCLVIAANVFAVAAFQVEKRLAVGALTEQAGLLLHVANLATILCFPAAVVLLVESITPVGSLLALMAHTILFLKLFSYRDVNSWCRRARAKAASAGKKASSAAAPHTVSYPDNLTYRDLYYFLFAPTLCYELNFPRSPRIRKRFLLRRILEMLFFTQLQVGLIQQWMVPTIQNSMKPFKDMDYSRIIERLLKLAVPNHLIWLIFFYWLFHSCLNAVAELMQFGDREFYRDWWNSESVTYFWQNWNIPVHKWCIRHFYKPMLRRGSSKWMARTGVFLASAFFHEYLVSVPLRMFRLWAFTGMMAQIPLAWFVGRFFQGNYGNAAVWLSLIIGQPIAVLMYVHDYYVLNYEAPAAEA
Method in brief: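 FLAG-tagged human DGAT1 membranes (expressed in Sf9 cells) were incubated 120 min at 37° C. in 50 mM Tris-HCl pH 7.4 with 150 mM MgCl2, 1 mM EDTA, 0.2% BSA, 50 μM DAG micelles (PC/PS) and 8.4 μM [^3H]-oleoylCoA. The reaction was stopped with N-ethylmaleimide and read as FlashPlate radioluminescence. Responses were normalized to enzyme/no-enzyme controls to fit dose-response curves.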

| Compound | IC50 (human DGAT1) | melting point |
| --- | --- | --- |
| CCc1ccccc1NC(=O)N1CCN(c2ccc(NC(=O)CCCc3ccccc3)cc2)CC1 [Compound 93] | 0.24 µM | 189 °C |
| O=C(CCCc1ccccc1)Nc1ccc(N2CCN(C(=O)Nc3ccccc3F)CC2)cc1 [Compound 94] | 0.295 µM | 177.3 °C |
| O=C(CCCc1ccccc1)Nc1ccc(N2CCN(C(=O)Nc3ccccc3Br)CC2)cc1 [Compound 95] | 0.126 µM | 147.4 °C |
| Cc1ccccc1NC(=O)N1CCN(c2ccc(NC(=O)CCCc3ccccc3)cc2)CC1 [Compound 96] | 0.0759 µM | 164.7 °C |
| O=C(CCN1CCCCC1)Nc1ccc(N2CCN(C(=O)Nc3c(Cl)cccc3Cl)CC2)cc1 [Compound 138] | 1.32 µM | 241.1 °C |
| CN(CC(=O)Nc1ccc(N2CCN(C(=O)Nc3c(Cl)cccc3Cl)CC2)cc1)C(=O)NC(C)(C)C [Compound 165] | 0.0646 µM | 214 to 215 °C |
| CC(C)C(=O)N(C)CC(=O)Nc1ccc(N2CCN(C(=O)Nc3c(Cl)cccc3Cl)CC2)cc1 [Compound 166] | 0.0631 µM | 232 to 234 °C |
| CN(CC(=O)Nc1ccc(N2CCN(C(=O)Nc3c(Cl)cccc3Cl)CC2)cc1)C(=O)Cc1ccccc1 [Compound 171] | 0.0282 µM | 253 to 255 °C |
| CS(=O)(=O)N1CCN(CCC(=O)Nc2ccc(N3CCN(C(=O)Nc4c(Cl)cccc4Cl)CC3)cc2)CC1 [Compound 172] | 0.603 µM | 250 to 252 °C |
| COc1ccc(CN(CCC(=O)Nc2ccc(N3CCN(C(=O)Nc4c(Cl)cccc4Cl)CC3)cc2)S(=O)(=O)c2ccccc2[N+](=O)[O-])cc1 [Compound 173] | 0.0347 µM | 197 to 199 °C |
| O=C(CCNCc1ccc(F)cc1)Nc1ccc(N2CCN(C(=O)Nc3c(Cl)cccc3Cl)CC2)cc1 [Compound 174] | 0.347 µM | 192 to 193 °C |
| O=C(CCN(Cc1ccc(F)cc1)S(=O)(=O)c1ccccc1[N+](=O)[O-])Nc1ccc(N2CCN(C(=O)Nc3c(Cl)cccc3Cl)CC2)cc1 [Compound 175] | 0.024 µM | 215 to 216 °C |
| CC1CCCN1CCC(=O)Nc1ccc(N2CCN(C(=O)Nc3c(Cl)cccc3Cl)CC2)cc1 (stereo not shown) [Compound 176] | 6.17 µM | 232 to 233 °C |
| COc1ccc(CNCC(=O)Nc2ccc(N3CCN(C(=O)Nc4c(Cl)cccc4Cl)CC3)cc2)cc1 [Compound 177] | 0.245 µM | 128 to 129 °C |
| O=C(CNCc1ccc(Cl)cc1)Nc1ccc(N2CCN(C(=O)Nc3c(Cl)cccc3Cl)CC2)cc1 [Compound 178] | 0.0759 µM | 183 to 184 °C |
| CC1CCCN1CC(=O)Nc1ccc(N2CCN(C(=O)Nc3c(Cl)cccc3Cl)CC2)cc1 (stereo not shown) [Compound 179] | 1.07 µM | 220 to 222 °C |
| O=C(CNC1CCCCC1)Nc1ccc(N2CCN(C(=O)Nc3c(Cl)cccc3Cl)CC2)cc1 [Compound 180] | 0.407 µM | 185 to 187 °C |
| Cc1ccc(CNCC(=O)Nc2ccc(N3CCN(C(=O)Nc4c(Cl)cccc4Cl)CC3)cc2)c(C)c1 [Compound 181] | 0.0759 µM | 163 to 165 °C |
| C=CCN(CCC(=O)Nc1ccc(N2CCN(C(=O)Nc3c(Cl)cccc3Cl)CC2)cc1)c1ccc(C)cc1C [Compound 183] | 0.0126 µM | 226 to 227 °C |
| Cc1ccc(NCC(=O)Nc2ccc(N3CCN(C(=O)Nc4c(Cl)cc(O)cc4Cl)CC3)cc2)c(C)c1 [Compound 185] | 0.00372 µM | 202 to 203 °C |
| C=CCN(CC(=O)Nc1ccc(N2CCN(C(=O)Nc3c(Cl)cc(OC)cc3OC)CC2)cc1)c1ccc(C)cc1C [Compound 186] | 0.0138 µM | 181 to 182 °C |
| COc1cc(Cl)c(NC(=O)N2CCN(c3ccc(NC(=O)CCCc4ccccc4)cc3)CC2)c(OC)c1 [Compound 188] | 0.0741 µM | 208 to 210 °C |
| O=C(CCCc1ccccc1)Nc1ccc(N2CCN(C(=S)Nc3c(Cl)cccc3Cl)CC2)cc1 [Compound 189] | 0.012 µM | 238.7 °C |
